This note sets out measurements from US12202818B2, “Compounds and methods for CD73 modulation and indications therefor” (Opna Bio SA, priority 2020, dated 2025).

One test addresses T1, human CD73 (Homo sapiens, UniProt P21589).
T1 construct: expressed in transfected cells
T1 sequence (P21589 27-549): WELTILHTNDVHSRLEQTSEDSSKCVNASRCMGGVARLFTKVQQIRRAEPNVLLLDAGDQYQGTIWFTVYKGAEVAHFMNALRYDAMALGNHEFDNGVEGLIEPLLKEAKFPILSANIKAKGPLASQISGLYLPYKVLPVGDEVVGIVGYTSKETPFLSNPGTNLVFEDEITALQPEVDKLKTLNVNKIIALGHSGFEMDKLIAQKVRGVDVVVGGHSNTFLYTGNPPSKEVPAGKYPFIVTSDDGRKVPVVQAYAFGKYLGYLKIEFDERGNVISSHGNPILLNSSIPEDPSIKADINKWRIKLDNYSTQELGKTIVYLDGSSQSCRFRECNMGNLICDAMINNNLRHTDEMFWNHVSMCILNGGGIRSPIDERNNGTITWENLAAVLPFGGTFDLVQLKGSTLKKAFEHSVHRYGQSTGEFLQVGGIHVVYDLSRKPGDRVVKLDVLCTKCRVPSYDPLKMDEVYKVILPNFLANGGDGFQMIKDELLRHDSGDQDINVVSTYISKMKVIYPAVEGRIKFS
Kind of test: Inhibitor activity against CD73 in cell based assay (CD73 expressing CHO-K1 cells). The settings on record: CHO-K1 cells expressing human CD73, 150 μM AMP, 4 hours of incubation; read-out: CHO-K1 CELL_VARIANT: CD73 IC50. In outline:
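AMP (150 μM) was added alongside 8 titrated compound doses (maximum 10 μM, 1:3 steps) to CHO-K1 cells stably expressing human CD73. After 4 h, supernatant AMP was measured indirectly with CellTiter-Glo 2.0 plus 1 μM ATP (30 min, RT). % inhibition versus high and low controls was fitted nonlinearly for IC50.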

In test [1] the target is T2, Human CD73 (amino acid residues 27-549) (Homo sapiens, UniProt P21589).
T2 construct: Human CD73 (amino acid residues 27-549); His tag (N); made in house; host or cells: E. coli
T2 sequence (P21589 27-549): T1 sequence (P21589 27-549)
Kind of test: CD73 enzymatic assay (luciferase-based indirect assay, CellTiter-Glo). Type of test: biochemical. The following applies: 0.4 nM CD73, 150 μM AMP, 1 hour at room temperature. In a few lines: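 Luciferase-coupled readout: AMP left after CD73 turnover suppresses CellTiter-Glo signal (1 μM ATP final, 30 min RT). Reaction beforehand: 150 μM AMP, 0.4 nM E. coli-made His-tagged CD73 residues 27-549, test compound, HEPES pH 7.4 with Tween-20, 1 h RT. % inhibition fitted nonlinearly for IC50.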
On the technique in general: ATP-based viability assays read luminescence as a measure of living cells.

For orientation: IC50 means the concentration at which inhibition is half-maximal. On to `O=c1c(Cl)c(N2CC[C@@H](Oc3cc(C4CCNCC4)ccn3)C2)cnn1CCO` [P-0023, (R)-4-chloro-2-(2-hydroxyethyl)-5-(3-((4-(piperidin-4-yl)pyridin-2-yl)oxy)pyrrolidin-1-yl)pyridazin-3(2H)-one], for which the IC50 (at human CD73; in test [1]) was 0.001 to 10 µM each time.
Turning to `O=C(O)Cc1ccc(-c2ccnc(O[C@@H]3CCN(c4cn[nH]c(=O)c4Cl)C3)c2)c(F)c1` [P-0219, (R)-2-(4-(2-((1-(5-chloro-6-oxo-1,6-dihydropyridazin-4-yl)pyrrolidin-3-yl)oxy)pyridin-4-yl)-3-fluorophenyl)acetic acid], the IC50 lay in the range of 10 to 100 µM at human CD73 and 0.001 to 10 µM in test [1].
For `O=c1[nH]ncc(N2CC[C@@H](Oc3cc(C4CCNCC4)ccn3)C2)c1Cl` [P-0071, (R)-4-chloro-5-(3-((4-(piperidin-4-yl)pyridin-2-yl)oxy)pyrrolidin-1-yl)pyridazin-3(2H)-one], the IC50 (at human CD73; in test [1]) was 0.001 to 10 µM throughout.
Take `CCCNS(=O)(=O)c1cc(C)c(-c2ccnc(O[C@@H]3CCN(c4cn[nH]c(=O)c4Cl)C3)c2)c(F)c1` [P-0225, (R)-4-(2-((1-(5-chloro-6-oxo-1,6-dihydropyridazin-4-yl)pyrrolidin-3-yl)oxy)pyridin-4-yl)-3-fluoro-5-methyl-N-propylbenzenesulfonamide]: the IC50 (at human CD73; in test [1]) was 0.001 to 10 µM throughout.
Turning to `CC1(CN2CCC(c3ccnc(O[C@@H]4CCN(c5cn[nH]c(=O)c5Cl)C4)c3)CC2)COC1` [P-0005, (R)-4-chloro-5-(3-((4-(1-((3-methyloxetan-3-yl)methyl)piperidin-4-yl)pyridin-2-yl)oxy)pyrrolidin-1-yl)pyridazin-3(2H)-one], the IC50 (on human CD73; in test [1]) was 0.001 to 10 µM each time.
As for `Cc1noc(C)c1-c1cncc(O[C@@H]2CCN(c3cn[nH]c(=O)c3Cl)C2)c1` [P-0162, (R)-4-chloro-5-(3-((5-(3,5-dimethylisoxazol-4-yl)pyridin-3-yl)oxy)pyrrolidin-1-yl)pyridazin-3(2H)-one], the IC50 (on human CD73; in test [1]) was 0.001 to 10 µM in each case.
With `Cc1noc(C)c1-c1cc(O[C@H]2CN(c3cnn(CCO)c(=O)c3Cl)C[C@@H]2F)ccn1` [P-0120, 4-chloro-5-((3S,4S)-3-((2-(3,5-dimethylisoxazol-4-yl)pyridin-4-yl)oxy)-4-fluoropyrrolidin-1-yl)-2-(2-hydroxyethyl)pyridazin-3(2H)-one], the IC50 (at human CD73; in test [1]) was 0.001 to 10 µM in each case.
Consider `COCc1noc(C)c1-c1cc(O[C@@H]2CCN(c3cn[nH]c(=O)c3Cl)C2)ncn1` [P-0125, (R)-4-chloro-5-(3-((6-(3-(methoxymethyl)-5-methylisoxazol-4-yl)pyrimidin-4-yl)oxy)pyrrolidin-1-yl)pyridazin-3(2H)-one], for which the IC50 (on human CD73; in test [1]) was 0.001 to 10 µM each time.
`Cc1nn(C)c(C)c1-c1ccnc(O[C@@H]2CCN(c3cnn(CC(C)O)c(=O)c3Cl)C2)c1` (stereo partly drawn) [P-0126, 4-chloro-2-(2-hydroxypropyl)-5-((R)-3-((4-(1,3,5-trimethyl-1H-pyrazol-4-yl)pyridin-2-yl)oxy)pyrrolidin-1-yl)pyridazin-3(2H)-one]: the IC50 (at human CD73; in test [1]) was 0.001 to 10 µM throughout.
For the molecule `O=c1[nH]ncc(N2CC[C@@H](Oc3cc(C4CCCCC4)ccn3)C2)c1Cl` [P-0085, (R)-4-chloro-5-(3-((4-cyclohexylpyridin-2-yl)oxy)pyrrolidin-1-yl)pyridazin-3(2H)-one], the IC50 (on human CD73; in test [1]) was 0.001 to 10 µM in each case.
Consider `O=c1[nH]ncc(N2CC[C@@H](Oc3cc(N4CCC5(CC4)COC5)ccn3)C2)c1Cl` [P-0082, (R)-5-(3-((4-(2-oxa-7-azaspiro[3.5]nonan-7-yl)pyridin-2-yl)oxy)pyrrolidin-1-yl)-4-chloropyridazin-3(2H)-one], for which the IC50 (on human CD73; in test [1]) was 0.001 to 10 µM each time.
Take `Cc1nn(CCO)c(C)c1-c1ccnc(O[C@@H]2CCN(c3cn[nH]c(=O)c3Cl)C2)c1` [P-0076, (R)-4-chloro-5-(3-((4-(1-(2-hydroxyethyl)-3,5-dimethyl-1H-pyrazol-4-yl)pyridin-2-yl)oxy)pyrrolidin-1-yl)pyridazin-3(2H)-one]: the IC50 (on human CD73; in test [1]) was 0.001 to 10 µM in each case.
With `Cc1nn(C)cc1-c1cccc(O[C@@H]2CCN(c3cn[nH]c(=O)c3Cl)C2)c1` [P-0197, (R)-4-chloro-5-(3-(3-(1,3-dimethyl-1H-pyrazol-4-yl)phenoxy)pyrrolidin-1-yl)pyridazin-3(2H)-one], the IC50 (on human CD73; in test [1]) was 0.001 to 10 µM in each case.
Take `CCn1nc(C)c(-c2ccnc(O[C@@H]3CCN(c4cnn(CCO)c(=O)c4Cl)C3)c2)c1C` [P-0062, (R)-4-chloro-5-(3-((4-(1-ethyl-3,5-dimethyl-1H-pyrazol-4-yl)pyridin-2-yl)oxy)pyrrolidin-1-yl)-2-(2-hydroxyethyl)pyridazin-3(2H)-one]: the IC50 (at human CD73; in test [1]) was 0.001 to 10 µM throughout.
Turning to `CCNS(=O)(=O)c1ccc(-c2ccnc(O[C@@H]3CCN(c4cn[nH]c(=O)c4Cl)C3)c2)c(Cl)c1` [P-0202, (R)-3-chloro-4-(2-((1-(5-chloro-6-oxo-1,6-dihydropyridazin-4-yl)pyrrolidin-3-yl)oxy)pyridin-4-yl)-N-ethylbenzenesulfonamide], the concentration for half-maximal inhibition (IC50) (on human CD73; in test [1]) was 0.001 to 10 µM throughout.
On to `Cc1nn(CC(O)C(F)(F)F)c(C)c1-c1ccnc(O[C@@H]2CCN(c3cn[nH]c(=O)c3Cl)C2)c1` (stereo partly drawn) [P-0039, 4-chloro-5-((3R)-3-((4-(3,5-dimethyl-1-(3,3,3-trifluoro-2-hydroxypropyl)-1H-pyrazol-4-yl)pyridin-2-yl)oxy)pyrrolidin-1-yl)pyridazin-3(2H)-one], for which the IC50 (at human CD73; in test [1]) was 0.001 to 10 µM in each case.
For `Cn1ncc(Cl)c1-c1ccnc(O[C@@H]2CCN(c3cn[nH]c(=O)c3Cl)C2)c1` [P-0155, (R)-4-chloro-5-(3-((4-(4-chloro-1-methyl-1H-pyrazol-5-yl)pyridin-2-yl)oxy)pyrrolidin-1-yl)pyridazin-3(2H)-one], the IC50 (at human CD73; in test [1]) was 0.001 to 10 µM in each case.
Take `Cc1cc(S(=O)(=O)NC2CC2)ccc1-c1ccnc(O[C@@H]2CCN(c3cn[nH]c(=O)c3Cl)C2)c1` [P-0235, (R)-4-(2-((1-(5-chloro-6-oxo-1,6-dihydropyridazin-4-yl)pyrrolidin-3-yl)oxy)pyridin-4-yl)-N-cyclopropyl-3-methylbenzenesulfonamide]: the IC50 (at human CD73; in test [1]) was 0.001 to 10 µM each time.
With `O=c1[nH]ncc(N2CC[C@@H](Oc3cc(-c4ccc(S(=O)(=O)NC5CC5)cc4)ccn3)C2)c1Cl` [P-0247, (R)-4-(2-((1-(5-chloro-6-oxo-1,6-dihydropyridazin-4-yl)pyrrolidin-3-yl)oxy)pyridin-4-yl)-N-cyclopropylbenzenesulfonamide], the IC50 (at human CD73; in test [1]) was 0.001 to 10 µM throughout.
As for `COCc1noc(C)c1-c1cc(O[C@@H]2CCN(c3cnn(CCO)c(=O)c3Cl)C2)ncn1` [P-0124, (R)-4-chloro-2-(2-hydroxyethyl)-5-(3-((6-(3-(methoxymethyl)-5-methylisoxazol-4-yl)pyrimidin-4-yl)oxy)pyrrolidin-1-yl)pyridazin-3(2H)-one], the IC50 (at human CD73; in test [1]) was 0.001 to 10 µM each time.
`Cc1noc(C)c1-c1cc(O[C@H]2CN(c3cn[nH]c(=O)c3Cl)C[C@@H]2F)ccn1` [P-0122, 4-chloro-5-((3S,4S)-3-((2-(3,5-dimethylisoxazol-4-yl)pyridin-4-yl)oxy)-4-fluoropyrrolidin-1-yl)pyridazin-3(2H)-one]: the IC50 (on human CD73; in test [1]) was 0.001 to 10 µM in each case.
With `Cc1nc(C)c(-c2cc(F)nc(O[C@@H]3CCN(c4cn[nH]c(=O)c4Cl)C3)c2)s1` [P-0174, (R)-4-chloro-5-(3-((4-(2,4-dimethylthiazol-5-yl)-6-fluoropyridin-2-yl)oxy)pyrrolidin-1-yl)pyridazin-3(2H)-one], the concentration for half-maximal inhibition (IC50) (at human CD73; in test [1]) was 0.001 to 10 µM in each case.
Take `CC(=O)C1CC=C(c2ccnc(O[C@@H]3CCN(c4cn[nH]c(=O)c4Cl)C3)c2)CC1` (stereo partly drawn) [P-0068, 5-((3R)-3-((4-(4-acetylcyclohex-1-en-1-yl)pyridin-2-yl)oxy)pyrrolidin-1-yl)-4-chloropyridazin-3(2H)-one]: the IC50 (at human CD73; in test [1]) was 0.001 to 10 µM throughout.
In the case of `Cc1nn(C)c(C)c1-c1cc(O[C@H]2CN(c3cnn(CCO)c(=O)c3Cl)C[C@@H]2F)ccn1` [P-0119, 4-chloro-5-((3S,4S)-3-fluoro-4-((2-(1,3,5-trimethyl-1H-pyrazol-4-yl)pyridin-4-yl)oxy)pyrrolidin-1-yl)-2-(2-hydroxyethyl)pyridazin-3(2H)-one], the concentration for half-maximal inhibition (IC50) (at human CD73; in test [1]) was 0.001 to 10 µM in each case.
